Laboratory results as given in publication PMC6576746, “Rational discovery of dual-indication multi-target PDE/Kinase inhibitor for precision anti-cancer therapy using structural systems pharmacology” (PLoS Computational Biology, 2019).

Experiments:
Assay in all cases: biochemical
Set-up in all cases: DiscoverX KinomeScan competition binding assay across human kinases; per cent of control at 10 and 100 uM
[1] = target: T1, ADCK4 (Homo sapiens, UniProt Q96D53); details: competition binding, % of control; read-out: Percent Control (100 uM Levosimendan)
T1 construct: gene COQ8B
Method in brief: (§1)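 KinomeScan competition binding was run across a human kinase panel at 10 μM and 100 μM levosimendan. Results are %control = (test − positive control)/(negative control − positive control) × 100.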

[2] = target: AKT2 (Homo sapiens, UniProt P31751); details: competition binding, % of control; read-out: Percent Control (100 uM Levosimendan)
Method in brief: as §1

[3] = target: CAMK2B (Homo sapiens, UniProt Q13554); details: competition binding, % of control; read-out: Percent Control (100 uM Levosimendan)
Method in brief: as §1

[4] = target: CAMK2D (Homo sapiens, UniProt Q13557); details: competition binding, % of control; read-out: Percent Control (100 uM Levosimendan)
Method in brief: as §1

[5] = target: T2, CDC2L1 (Homo sapiens, UniProt P21127); details: competition binding, % of control; read-out: Percent Control (100 uM Levosimendan)
T2 construct: gene CDK11B
T2 sequence (P21127 whole entry): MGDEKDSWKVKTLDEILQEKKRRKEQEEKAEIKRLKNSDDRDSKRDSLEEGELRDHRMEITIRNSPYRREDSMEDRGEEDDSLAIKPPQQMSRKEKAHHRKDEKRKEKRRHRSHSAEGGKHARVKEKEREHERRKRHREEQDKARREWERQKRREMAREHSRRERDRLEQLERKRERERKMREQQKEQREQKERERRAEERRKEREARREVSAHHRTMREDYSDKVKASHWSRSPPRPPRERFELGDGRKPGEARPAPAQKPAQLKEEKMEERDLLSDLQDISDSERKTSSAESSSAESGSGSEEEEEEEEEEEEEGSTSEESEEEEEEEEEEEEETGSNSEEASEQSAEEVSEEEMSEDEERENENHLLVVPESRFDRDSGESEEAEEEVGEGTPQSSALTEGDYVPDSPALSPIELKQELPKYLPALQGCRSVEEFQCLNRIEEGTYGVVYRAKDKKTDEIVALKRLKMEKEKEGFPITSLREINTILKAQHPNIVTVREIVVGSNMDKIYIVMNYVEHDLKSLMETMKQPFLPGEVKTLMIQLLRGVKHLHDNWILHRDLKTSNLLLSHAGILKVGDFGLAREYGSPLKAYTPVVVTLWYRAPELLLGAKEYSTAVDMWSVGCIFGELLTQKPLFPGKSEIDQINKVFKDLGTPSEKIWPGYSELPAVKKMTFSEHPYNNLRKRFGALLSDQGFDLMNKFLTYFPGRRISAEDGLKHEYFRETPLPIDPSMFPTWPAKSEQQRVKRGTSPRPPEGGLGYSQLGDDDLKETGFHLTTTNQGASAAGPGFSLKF
Method in brief: as §1

[6] = target: T3, CDK11 (Homo sapiens, UniProt Q9BWU1); details: competition binding, % of control; read-out: Percent Control (100 uM Levosimendan)
T3 construct: gene CDK19
Method in brief: as §1

[7] = target: CDK8 (Homo sapiens, UniProt P49336); details: competition binding, % of control; read-out: Percent Control (100 uM Levosimendan)
Method in brief: as §1

[8] = target: CLK3 (Homo sapiens, UniProt P49761); details: competition binding, % of control; read-out: Percent Control (100 uM Levosimendan)
Method in brief: as §1

[9] = target: DAPK1 (Homo sapiens, UniProt P53355); details: competition binding, % of control; read-out: Percent Control (100 uM Levosimendan)
DAPK1, sequence (P53355 whole entry): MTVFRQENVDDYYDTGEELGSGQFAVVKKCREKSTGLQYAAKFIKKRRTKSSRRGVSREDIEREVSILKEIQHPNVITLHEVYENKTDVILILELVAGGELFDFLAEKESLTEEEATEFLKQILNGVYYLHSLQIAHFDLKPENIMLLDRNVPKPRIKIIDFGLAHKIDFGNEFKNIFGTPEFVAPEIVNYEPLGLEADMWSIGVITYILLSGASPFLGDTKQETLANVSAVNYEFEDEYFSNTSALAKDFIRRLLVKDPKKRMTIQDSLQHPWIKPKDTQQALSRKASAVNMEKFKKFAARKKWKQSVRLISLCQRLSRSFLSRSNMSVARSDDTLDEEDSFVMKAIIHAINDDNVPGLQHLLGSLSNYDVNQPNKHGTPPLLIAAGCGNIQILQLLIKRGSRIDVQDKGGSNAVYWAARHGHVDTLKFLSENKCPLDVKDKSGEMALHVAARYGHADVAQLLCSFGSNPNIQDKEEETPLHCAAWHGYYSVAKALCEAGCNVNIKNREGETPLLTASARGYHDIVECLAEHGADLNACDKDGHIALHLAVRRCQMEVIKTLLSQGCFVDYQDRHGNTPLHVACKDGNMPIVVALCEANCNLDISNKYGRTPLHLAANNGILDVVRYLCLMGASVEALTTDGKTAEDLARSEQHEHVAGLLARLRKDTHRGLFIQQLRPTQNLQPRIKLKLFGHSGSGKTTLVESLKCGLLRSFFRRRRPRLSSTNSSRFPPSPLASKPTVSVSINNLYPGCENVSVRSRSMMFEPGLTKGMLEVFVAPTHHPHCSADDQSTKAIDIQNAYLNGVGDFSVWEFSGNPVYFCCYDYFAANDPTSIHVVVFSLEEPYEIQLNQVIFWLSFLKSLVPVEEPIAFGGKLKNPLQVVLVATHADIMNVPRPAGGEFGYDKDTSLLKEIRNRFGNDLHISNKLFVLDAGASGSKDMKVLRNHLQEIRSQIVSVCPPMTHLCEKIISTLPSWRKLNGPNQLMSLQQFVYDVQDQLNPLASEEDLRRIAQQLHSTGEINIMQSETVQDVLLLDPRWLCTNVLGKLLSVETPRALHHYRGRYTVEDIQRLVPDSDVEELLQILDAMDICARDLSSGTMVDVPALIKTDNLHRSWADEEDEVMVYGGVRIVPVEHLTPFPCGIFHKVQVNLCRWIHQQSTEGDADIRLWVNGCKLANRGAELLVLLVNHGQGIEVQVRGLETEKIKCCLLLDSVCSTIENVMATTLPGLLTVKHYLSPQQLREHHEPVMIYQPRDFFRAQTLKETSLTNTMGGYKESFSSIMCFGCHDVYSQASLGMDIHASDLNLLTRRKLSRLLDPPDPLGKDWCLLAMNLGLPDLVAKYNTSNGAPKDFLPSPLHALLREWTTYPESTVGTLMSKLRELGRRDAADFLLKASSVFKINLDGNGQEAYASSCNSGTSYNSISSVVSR
Method in brief: as §1

[10] = target: EGFR(G719S) (Homo sapiens, UniProt P00533, G719S); details: competition binding, % of control
EGFR(G719S), sequence (P00533 whole entry G719S): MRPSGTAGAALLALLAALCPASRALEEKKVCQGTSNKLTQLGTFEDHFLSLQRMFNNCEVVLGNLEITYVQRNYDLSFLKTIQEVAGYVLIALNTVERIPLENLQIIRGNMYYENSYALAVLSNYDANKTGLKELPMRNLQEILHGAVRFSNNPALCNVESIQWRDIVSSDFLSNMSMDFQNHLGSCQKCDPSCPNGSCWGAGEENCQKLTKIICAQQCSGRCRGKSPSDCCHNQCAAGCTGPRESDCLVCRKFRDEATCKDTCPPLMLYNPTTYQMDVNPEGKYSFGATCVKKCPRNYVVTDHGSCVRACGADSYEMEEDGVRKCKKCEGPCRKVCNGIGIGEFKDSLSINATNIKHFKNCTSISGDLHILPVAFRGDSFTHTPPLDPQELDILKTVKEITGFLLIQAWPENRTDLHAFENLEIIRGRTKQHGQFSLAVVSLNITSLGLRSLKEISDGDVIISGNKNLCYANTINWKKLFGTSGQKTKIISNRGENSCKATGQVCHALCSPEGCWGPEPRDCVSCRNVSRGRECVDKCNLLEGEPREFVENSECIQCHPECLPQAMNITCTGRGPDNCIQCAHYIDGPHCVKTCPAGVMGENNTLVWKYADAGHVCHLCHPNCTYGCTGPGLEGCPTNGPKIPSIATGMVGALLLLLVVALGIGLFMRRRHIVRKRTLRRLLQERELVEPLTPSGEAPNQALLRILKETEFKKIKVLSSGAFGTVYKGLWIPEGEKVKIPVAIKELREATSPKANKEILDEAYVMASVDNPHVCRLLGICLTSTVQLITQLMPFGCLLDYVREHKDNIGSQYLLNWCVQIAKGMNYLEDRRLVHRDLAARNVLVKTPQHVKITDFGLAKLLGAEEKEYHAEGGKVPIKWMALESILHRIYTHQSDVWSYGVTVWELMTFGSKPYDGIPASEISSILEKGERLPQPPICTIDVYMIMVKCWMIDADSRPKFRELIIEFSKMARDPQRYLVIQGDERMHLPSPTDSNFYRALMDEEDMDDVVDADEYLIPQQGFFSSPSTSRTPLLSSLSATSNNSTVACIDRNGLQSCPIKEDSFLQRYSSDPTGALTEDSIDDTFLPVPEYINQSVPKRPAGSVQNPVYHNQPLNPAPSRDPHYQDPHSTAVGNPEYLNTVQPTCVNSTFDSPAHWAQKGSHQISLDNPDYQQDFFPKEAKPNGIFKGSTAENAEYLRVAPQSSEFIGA
Method in brief: as §1

[11] = target: EGFR(L858R,T790M) (Homo sapiens, UniProt P00533, L858R/T790M); details: competition binding, % of control; read-out: Percent Control (100 uM Levosimendan)
EGFR(L858R,T790M), sequence (P00533 whole entry T790M/L858R): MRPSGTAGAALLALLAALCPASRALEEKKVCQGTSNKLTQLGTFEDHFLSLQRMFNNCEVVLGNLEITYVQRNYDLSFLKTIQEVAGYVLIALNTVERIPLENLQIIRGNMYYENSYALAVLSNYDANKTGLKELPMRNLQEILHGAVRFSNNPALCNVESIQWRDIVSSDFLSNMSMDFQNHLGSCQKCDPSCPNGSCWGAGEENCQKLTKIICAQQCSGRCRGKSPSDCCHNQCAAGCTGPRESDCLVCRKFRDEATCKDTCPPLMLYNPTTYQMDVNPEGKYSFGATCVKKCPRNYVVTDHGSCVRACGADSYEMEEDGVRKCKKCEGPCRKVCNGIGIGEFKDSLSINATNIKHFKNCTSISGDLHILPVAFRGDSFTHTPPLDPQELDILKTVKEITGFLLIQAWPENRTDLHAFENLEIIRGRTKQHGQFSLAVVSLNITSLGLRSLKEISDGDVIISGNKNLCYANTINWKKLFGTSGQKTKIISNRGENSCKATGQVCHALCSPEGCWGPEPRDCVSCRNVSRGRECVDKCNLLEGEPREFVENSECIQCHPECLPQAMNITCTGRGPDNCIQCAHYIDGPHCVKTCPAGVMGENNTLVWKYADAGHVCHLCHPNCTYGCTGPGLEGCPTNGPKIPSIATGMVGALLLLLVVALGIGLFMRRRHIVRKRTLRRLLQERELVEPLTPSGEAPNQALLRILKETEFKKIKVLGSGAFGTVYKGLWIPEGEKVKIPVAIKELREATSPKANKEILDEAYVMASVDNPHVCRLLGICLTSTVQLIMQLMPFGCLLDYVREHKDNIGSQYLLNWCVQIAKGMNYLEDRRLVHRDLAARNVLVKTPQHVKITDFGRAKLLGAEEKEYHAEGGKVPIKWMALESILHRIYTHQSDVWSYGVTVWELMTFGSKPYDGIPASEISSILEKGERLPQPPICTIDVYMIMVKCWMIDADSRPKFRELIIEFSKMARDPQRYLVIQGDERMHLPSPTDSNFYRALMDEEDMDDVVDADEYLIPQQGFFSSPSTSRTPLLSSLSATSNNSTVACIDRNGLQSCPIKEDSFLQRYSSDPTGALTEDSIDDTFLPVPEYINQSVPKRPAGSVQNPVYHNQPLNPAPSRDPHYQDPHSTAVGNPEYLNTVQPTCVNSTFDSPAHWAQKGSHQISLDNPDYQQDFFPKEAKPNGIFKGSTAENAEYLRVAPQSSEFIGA
Method in brief: as §1

[12] = target: EPHA3 (Homo sapiens, UniProt P29320); details: competition binding, % of control; read-out: Percent Control (100 uM Levosimendan)
Method in brief: as §1

[13] = target: T4, IKK-beta (Homo sapiens, UniProt O14920); details: competition binding, % of control; read-out: Percent Control (100 uM Levosimendan)
T4 construct: gene IKBKB
Method in brief: as §1

[14] = target: LRRK2(G2019S) (Homo sapiens, UniProt Q5S007, G2019S); details: competition binding, % of control; read-out: Percent Control (100 uM Levosimendan)
Method in brief: as §1

[15] = target: MERTK (Homo sapiens, UniProt Q12866); details: competition binding, % of control; read-out: Percent Control (100 uM Levosimendan)
Method in brief: as §1

[16] = target: T5, MRCKB (Homo sapiens, UniProt Q9Y5S2); details: competition binding, % of control; read-out: Percent Control (100 uM Levosimendan)
T5 construct: gene CDC42BPB
Method in brief: as §1

[17] = target: NEK2 (Homo sapiens, UniProt P51955); details: competition binding, % of control; read-out: Percent Control (100 uM Levosimendan)
Method in brief: as §1

[18] = target: PIM2 (Homo sapiens, UniProt Q9P1W9); details: competition binding, % of control
PIM2, sequence (Q9P1W9 whole entry): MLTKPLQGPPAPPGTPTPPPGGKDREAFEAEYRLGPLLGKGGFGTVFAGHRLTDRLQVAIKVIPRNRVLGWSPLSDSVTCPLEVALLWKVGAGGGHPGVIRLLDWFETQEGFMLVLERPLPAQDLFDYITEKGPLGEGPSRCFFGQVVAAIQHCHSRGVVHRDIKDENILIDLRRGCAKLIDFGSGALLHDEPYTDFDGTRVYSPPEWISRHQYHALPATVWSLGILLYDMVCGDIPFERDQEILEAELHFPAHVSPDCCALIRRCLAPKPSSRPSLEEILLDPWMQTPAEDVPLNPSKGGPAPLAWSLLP
Method in brief: as §1

[19] = target: RET(V804M) (Homo sapiens, UniProt P07949, V804M); details: competition binding, % of control; read-out: Percent Control (100 uM Levosimendan)
Method in brief: as §1

[20] = read-out: Percent Control (10 uM Levosimendan)
[21] = read-out: Percent Control (100 uM Levosimendan)

SMILES: C[C@@H]1CC(=O)NN=C1c1ccc(NN=C(C#N)C#N)cc1 [levosimendan]
- remaining binding at 100 µM [1]: 100%
- remaining binding at 100 µM [2]: 64%
- remaining binding at 100 µM [3]: 90%
- remaining binding at 100 µM [4]: 87%
- remaining binding at 100 µM [5]: 100%
- remaining binding at 100 µM [6]: 100%
- remaining binding at 100 µM [7]: 100%
- remaining binding at 100 µM [8]: 68%
- remaining binding at 100 µM [9]: 88%
- remaining binding at 10 µM [10, 20]: 79%
- remaining binding at 100 µM [10, 21]: 41%
- remaining binding at 100 µM [11]: 82%
- remaining binding at 100 µM [12]: 97%
- remaining binding at 100 µM [13]: 74%
- remaining binding at 100 µM [14]: 100%
- remaining binding at 100 µM [15]: 70%
- remaining binding at 100 µM [16]: 74%
- remaining binding at 100 µM [17]: 96%
- remaining binding at 10 µM [18, 20]: 84%
- remaining binding at 100 µM [18, 21]: 20%
- remaining binding at 100 µM [19]: 80%
